Laboratory results reported in patent US7863267B2, “Use of selective chloride channel modulators to treat methamphetamine abuse” (priority 2003, dated 2011).
Read-outs that look alike come from different tables or passages of the source.

What was measured:
alcoholics [1] = experiment: Clinical observations during hospitalization (appetite, sleep, anxiety, desire to drink); format: in vivo, human
Excerpt: (§1) 64 alcoholics (51 males and 13 females) voluntarily entered a treatment program to discontinue the use of alcohol. The patients were provided the appropriate information and the corresponding informed consent form was obtained from them. The patients were warned not to drink alcohol the morning on which the treatment was to be carried out to enable better evaluation of the withdrawal symptoms. Table 14 summarizes the characteristics of the patients treated associated with alcohol use.
(§2) Flumazenil was administered at a dose of 0.2 mg every 3 minutes (up to a total of 2 mg/day). This quantity per dose was established to minimize the adverse side effects associated with withdrawal or interactions with other pharmaceuticals or psychopathologies.

[2] = tested on: ethanol withdrawal syndrome; conditions: cited from earlier work
alcoholics [3] = experiment: Follow-up after flumazenil treatment programme (therapy, dropouts); format: in vivo, human
Procedure: Before discharge from the hospital, the following medications were prescribed: • Vitamin B complex: 1 month with one dose during breakfast and one dose during lunch. • Piracetam, or a medicament that is pharmacologically equivalent, 3 g for 1 week with one dose during breakfast and 800 mg for 1 month with one dose during breakfast and one dose during lunch; • Fluoxetine 20 mg for 2 months with one dose during breakfast; • Clomethiazole 192 mg for 1 week with one dose during breakfast and one dose during dinner and a subsequent elimination of dose during the second week; • Disulfuram 250 mg with one dose during breakfast.
As part of the treatment program, the patients were instructed to attend the outpatient treatment center for 9 months with decreasing frequency [once a week for the first three months, once every two weeks during the second three months, and once a month during the third three months].
Likewise, a semi-structured follow-up of cognitive behavior therapy was implemented. Individual and family psychotherapy was focused on 4 major interventions (cognitive restructuring, work therapy, prevention of relapse, and stress reduction) aimed at rehabilitating the social, family, work, personal and leisure life of the patient.
Table 16 statistically summarizes the results obtained before and after the treatment (at the end of 18 hours).

alcoholics [4] = experiment: Heart rate and blood pressure before and after flumazenil in alcoholics; format: in vivo, human; design: Heart rate: patients with a significant reduction / Diastolic blood pressure: patients with a significant reduction: concentration or dose not given beside the values
Excerpt: as §1
(§3) Before starting the treatment, the patients underwent a complete medical and psychological examination. The monitoring of the patients throughout the morning included a complete blood count, a biochemical profile [creatinine, glucose, blood urea nitrogen (BUN), cholesterol (HDL and LDL), triglycerides, alkaline phosphatase, LDH (lactic dehydrogenase) and total proteins], hepatic function tests [GOT, GPT, GGT, bilirubin), electrocardiogram and, if need be, pregnancy test and x-ray examination. The exclusion criteria applied included acute or uncompensated illnesses, as well as the taking of any drug contraindicated with flumazenil. No patient was excluded after the pre-admission interview and the tests performed. Admission of one patient was postponed until their cardiac pathology was checked.
(§4) Before and after the administration of flumazenil, the withdrawal symptomatology was measured using the CIWA-A evaluation (Adinoff et al., Medical Toxicology 3:172-196 (1988)), as well as heart rate and blood pressure.
as §2
(§5) Patients who presented marked anxiety were administered an additional dose of 192 mg of clomethiazole 30 minutes before administration of flumazenil.

alcoholics [5] = experiment: CIWA-A withdrawal symptomatology before and after flumazenil in alcoholics; format: in vivo, human
Excerpt: as §1, §3, §4, §2, §5

[6] = tested on: alcoholics in the acute withdrawal phase; conditions: 2 mg IV for 1 minute, 8 alcoholics, cited from earlier work
alcoholics [7] = experiment: Adverse events during flumazenil administration in alcoholics; format: in vivo, human
Excerpt: as §1, §2, §5

[8] = cited from earlier work
[9] = excreted unchanged, not appreciably metabolized; cited from earlier work
[10] = after first administration, 53 patients
[11] = after first administration, 55 patients
[12] = after second administration, 55 patients
[13] = after second administration, 56 patients
[14] = after second administration, 58 patients

In the case of CCOC(=O)c1ncn2c1CN(C)C(=O)c1cc(F)ccc1-2 [flumazenil, ethyl 8-fluoro-5,6-dihydro-5-methyl-6-oxo-4H-imidazol[1,5-a][1,4]benzodiazepine-3-carboxylate], the “Psychophysiological functions such as appetite and sleep” value (alcoholics [1]) is given as “regained very rapidly”, the “Spontaneous verbal report from the majority of the patients” value (alcoholics [1]) is given as “absence of anxiety and of the desire to drink alcohol” and the “Anxiogenic withdrawal effects (social interaction test, elevated plus maze)” value ([2]; rat models of the ethanol withdrawal syndrome) is given as “reverse anxiogenic withdrawal effects”. The “Agitation and stereotyped behavior induced by withdrawal from long-term ethanol exposure” value ([2]; rats) was “prevent the agitation and stereotyped behavior”, the “Follow-up: Dropouts” value (alcoholics [3]; Month 1, N 43) was 4.7% and the “Follow-up: Therapy and Disulfiram” value (alcoholics [3]; Month 1, N 43) was 95.3%. For the same molecule, the “Follow-up: Therapy without Disulfiram” value (alcoholics [3]; Month 1, N 43) was 4.5%, the “Follow-up: Dropouts” value (alcoholics [3]; Month 3, N 22) was 9.1% and the “Follow-up: Therapy and Disulfiram” value (alcoholics [3]; Month 3, N 22) was 86.4%. For the same molecule, the “Follow-up: Dropouts” value (alcoholics [3]; Month 6, N 12) was 25%, the “Follow-up: Therapy and Disulfiram” value (alcoholics [3]; Month 6, N 12) was 75% and the “Follow-up: Dropouts” value (alcoholics [3]; Month 9, N 8) was 12.5%. For the same molecule, the “Follow-up: Therapy and Disulfiram” value (alcoholics [3]; Month 9, N 8) was 75%, the “Follow-up: Therapy without Disulfiram” value (alcoholics [3]; Month 9, N 8) was 12.5% and the “Diastolic blood pressure: patients with a significant increase” value (alcoholics [4]; [10]) was 18.9%. The “Diastolic blood pressure: patients with a significant reduction” value (alcoholics [4]; [10]) was 34%, the “Diastolic blood pressure: patients with no change” value (alcoholics [4]; [10]) was 47.2% and the “Systolic blood pressure: patients with a significant increase” value (alcoholics [4]; [10]) was 15.1%. For the same molecule, the “Systolic blood pressure: patients with a significant reduction” value (alcoholics [4]; [10]) was 47.2%, the “Systolic blood pressure: patients with no change” value (alcoholics [4]; [10]) was 37.7% and the “Heart rate: patients with a significant increase” value (alcoholics [4]; [11]) was 9.1%. For the same molecule, the “Heart rate: patients with a significant reduction” value (alcoholics [4]; [11]) was 50.9%, the “Heart rate: patients with no change” value (alcoholics [4]; [11]) was 40.0% and the “Heart rate: patients with a significant reduction” value (alcoholics [4]; [12]) was 41.8%. For the same molecule, the “Heart rate: patients with no change” value (alcoholics [4]; [12]) was 58.2%, the “Diastolic blood pressure: patients with a significant increase” value (alcoholics [4]; [13]) was 19.6% and the “Diastolic blood pressure: patients with a significant reduction” value (alcoholics [4]; [13]) was 28.6%. The “Diastolic blood pressure: patients with no change” value (alcoholics [4]; [13]) was 51.8%, the “Systolic blood pressure: patients with a significant increase” value (alcoholics [4]; [13]) was 16.1% and the “Systolic blood pressure: patients with a significant reduction” value (alcoholics [4]; [13]) was 28.6. For the same molecule, the “Systolic blood pressure: patients with no change” value (alcoholics [4]; [13]) was 55.4%, the “Diastolic blood pressure mean after treatment” value (alcoholics [4]; after treatment (at the end of 18 hours), n=51, before treatment mean 86.27) was 82.75 and the “Systolic blood pressure mean after treatment” value (alcoholics [4]; after treatment (at the end of 18 hours), n=51, before treatment mean 135.2) was 126.67. For the same molecule, the “Heart rate mean after treatment” value (alcoholics [4]; after treatment (at the end of 18 hours), n=53, before treatment mean 81.42, in beats/min (unit assumed)) was 75.02, the “CIWA-A scoring: patients with a significant reduction” value (alcoholics [5]; after first administration of flumazenil (0.2 mg every 3 min up to 2 mg/day), 55 patients) was 47.3% and the “CIWA-A scoring: patients with a significant increase” value (alcoholics [5]; [11]) was 12.7%. The “CIWA-A scoring: patients with no change” value (alcoholics [5]; [11]) was 40.0%, the “CIWA-A scoring: patients with a significant increase” value (alcoholics [5]; [14]) was 8.6% and the “CIWA-A scoring: patients with a significant reduction” value (alcoholics [5]; [14]) was 36.2%. For the same molecule, the “CIWA-A scoring: patients with no change” value (alcoholics [5]; [14]) was 55.2%, the “CIWA-A mean after treatment” value (alcoholics [5]; after treatment (at the end of 18 hours), n=54, before treatment mean 4.13) was “.76” and the “Withdrawal symptoms after flumazenil” value ([6]; in other cases) was “the withdrawal symptoms disappeared but returned a few hours later”. The “Withdrawal symptoms after flumazenil” value ([6]; in some cases, especially sweats and anxiety) was “immediate worsening of the withdrawal symptoms”, the “Patients who suffered headache during or immediately following administration” value (alcoholics [7]; disappeared after a few minutes or after metamizole magnesium) was “Approximately 10%” and the “First administration of flumazenil interrupted and postponed to the following day” value (alcoholics [7]; of the 64 patients treated, increase in confusion, distal tremors or anxiety) was 3 cases.
In the case of OCCOCCN1CCN(C(c2ccccc2)c2ccc(Cl)cc2)CC1 (centres unmarked) [Hydroxyzine], the “Time to effects after oral administration” value [8] is listed as 15 to 30 min.
For NCC1(CC(=O)O)CCCCC1 [Gabapentin], the Elimination half-life [9] is listed as 5 to 7 h.
